Experimental data: US20260193226A1, “MICROBIOCIDAL TETRAHYDROISOQUINOLINE DERIVATIVES” (SYNGENTA CROP PROTECTION AG, priority 2022, published 2026)

How the values were obtained:
Phytophthora infestans = format: in vivo; settings: 200 ppm; tomato leaf disc preventative; compared to untreated control
[1] = system: Mycosphaerella graminicola (Septoria tritici); assay: Mycosphaerella graminicola (Septoria tritici) / liquid culture (Septoria blotch); format: cell-based; settings: Zymoseptoria tritici, compared to untreated control
[2] = system: Gibberella zeae (Fusarium graminearum); format: in vivo; settings: 200 ppm; wheat spikelet preventative; compared to untreated control
[3] = system: Glomerella lagenarium (Colletotrichum lagenarium); assay: Glomerella lagenarium (Colletotrichum lagenarium) / liquid culture (anthracnose); format: cell-based; settings: Colletotrichum orbiculare, compared to untreated control
Procedure: Example B3: Glomerella lagenarium (Colletotrichum lagenarium)/Liquid Culture (Anthracnose) Conidia of the fungus from cryogenic storage are directly mixed into nutrient broth (PDB potato dextrose broth). After placing a (DMSO) solution of test compound into a microtiter plate (96-well format), the nutrient broth containing the fungal spores is added. The test plates are incubated at 24° C. and the inhibition of growth is measured photometrically 3 to 4 days after application.

[4] = system: Monographella nivalis (Microdochium nivale); assay: Monographella nivalis (Microdochium nivale) / liquid culture (foot rot cereals); format: cell-based; settings: compared to untreated control
Procedure: (§1) Example B8: Monographella nivalis (Microdochium nivale)/Liquid Culture (Foot Rot Cereals) Conidia of the fungus from cryogenic storage are directly mixed into nutrient broth (PDB potato dextrose broth). After placing a (DMSO) solution of test compound into a microtiter plate (96-well format), the nutrient broth containing the fungal spores is added. The test plates are incubated at 24° C. and the inhibition of growth is determined photometrically 4 to 5 days after application.

[5] = system: Mycosphaerella arachidis (Cercospora arachidicola); assay: Mycosphaerella arachidis (Cercospora arachidicola) / liquid culture (early leaf spot); format: cell-based; settings: compared to untreated control
Procedure: as §1, with “B9: Mycosphaerella arachidis (Cercospora arachidicola)/Liquid” for “B8: Monographella nivalis (Microdochium nivale)/Liquid”, “(Early Leaf Spot)” for “(Foot Rot Cereals)”

Alternaria solani = Alternaria solani / tomato / leaf disc (early blight); format: in vivo; settings: foliar, compared to untreated control
Procedure: Example B1: Alternaria solani/Tomato/Leaf Disc (Early Blight) Tomato leaf disks cv. Baby are placed on agar in multiwell plates (24-well format) and sprayed with the formulated test compound diluted in water. The leaf disks are inoculated with a spore suspension of the fungus 2 days after application. The inoculated leaf disks are incubated at 23° C./21° C.

Pyrenophora teres = Pyrenophora teres / barley / leaf disc preventative (net blotch); format: in vivo; settings: foliar, compared to untreated control
Procedure: Example B12: Pyrenophora teres/Barley/Leaf Disc Preventative (Net Blotch) Barley leaf segments cv. Hasso are placed on agar in a multiwell plate (24-well format) and sprayed with the formulated test compound diluted in water. The leaf segments are inoculated with a spore suspension of the fungus 2 days after application. The inoculated leaf segments are incubated at 20° C. and 65% rh under a light regime of 12 h light/12 h darkness in a climate cabinet and the activity of a compound is assessed as disease control compared to untreated when an appropriate level of disease damage appears in untreated check leaf segments (5 to 7 days after application).

Pythium ultimum = Pythium ultimum / liquid culture (seedling damping off); format: cell-based; settings: 20 ppm, compared to untreated control
Procedure: Example B13: Pythium ultimum/Liquid Culture (Seedling Damping Off) Mycelia fragments and oospores of a newly grown liquid culture of the fungus are directly mixed into nutrient broth (PDB potato dextrose broth). After placing a (DMSO) solution of test compound into a microtiter plate (96-well format), the nutrient broth containing the fungal mycelia/spore mixture is added. The test plates are incubated at 24° C. and the inhibition of growth is determined photometrically 2 to 3 days after application.

| Compound | control of Phytophthora infestans (Phytophthora infestans) | inhibition of growth at 20 ppm [1] [%] | control of Gibberella zeae [2] | inhibition of growth at 20 ppm [3] [%] | inhibition of growth at 20 ppm [4] [%] | inhibition of growth at 20 ppm [5] [%] | pest or weed control at 200 ppm (Alternaria solani) [%] | pest or weed control at 200 ppm (Pyrenophora teres) [%] | control of Pythium ultimum (Pythium ultimum) |
| --- | --- | --- | --- | --- | --- | --- | --- | --- | --- |
| Cc1c(C2CN(C(=O)CCC3CCCC3)Cc3ccccc32)cnn1C (stereo not shown) [Compound P-17, 3-cyclopentyl-1-[4-(1,5-dimethylpyrazol-4-yl)-3,4-dihydro-1H-isoquinolin-2-yl]propan-1-one] | at least 80% | ≥ 80 |  |  |  |  |  |  |  |
| Cc1c([C@H]2CN(C(=O)CCCCCC(F)F)[C@@H](C)c3ccccc32)cnn1C [Compound P-46, 1-[(1S,4S)-4-(1,5-dimethylpyrazol-4-yl)-1-methyl-3,4-dihydro-1H-isoquinolin-2-yl]-7,7-difluoro-heptan-1-one] |  | ≥ 80 | at least 80% | ≥ 80 | ≥ 80 | ≥ 80 | ≥ 80 | ≥ 80 |  |
| Cc1c([C@H]2CN(C(=O)CCCCC3CC3)[C@@H](C)c3ccccc32)cnn1C [Compound P-47, 5-cyclopropyl-1-[(1S,4S)-4-(1,5-dimethylpyrazol-4-yl)-1-methyl-3,4-dihydro-1H-isoquinolin-2-yl]pentan-1-one] |  | ≥ 80 |  | ≥ 80 | ≥ 80 | ≥ 80 | ≥ 80 | ≥ 80 |  |
| Cc1c(C2CN(C(=O)CCc3ccc(F)cc3F)Cc3ccccc32)cnn1C (stereo not shown) [Compound P-6, 3-(2,4-difluorophenyl)-1-[4-(1,5-dimethylpyrazol-4-yl)-3,4-dihydro-1H-isoquinolin-2-yl]propan-1-one] |  | ≥ 80 |  |  |  | ≥ 80 | ≥ 80 | ≥ 80 | at least 80% |
| CCCCCCC(=O)N1C[C@H](c2cnn(C)c2C)c2ccccc2[C@@H]1C (racemic) [Compound P-11, 1-[rac-(1S,4S)-4-(1,5-dimethylpyrazol-4-yl)-1-methyl-3,4-dihydro-1H-isoquinolin-2-yl]heptan-1-one] |  | ≥ 80 |  | ≥ 80 | ≥ 80 | ≥ 80 | ≥ 80 | ≥ 80 |  |
| Cc1c([C@H]2CN(C(=O)CCc3ccc(F)cc3F)[C@@H](C)c3ccccc32)cnn1C (racemic) [Compound P-45, 3-(2,4-difluorophenyl)-1-[rac-(1S,4S)-4-(1,5-dimethylpyrazol-4-yl)-1-methyl-3,4-dihydro-1H-isoquinolin-2-yl]propan-1-one] |  | ≥ 80 |  | ≥ 80 | ≥ 80 | ≥ 80 | ≥ 80 | ≥ 80 |  |
| CCCCCCC(=O)N1Cc2ccccc2C(c2cnn(C)c2C)C1 (stereo not shown) [Compound P-4, 1-[4-(1,5-dimethylpyrazol-4-yl)-3,4-dihydro-1H-isoquinolin-2-yl]heptan-1-one] |  | ≥ 80 |  | ≥ 80 | ≥ 80 | ≥ 80 | ≥ 80 |  |  |
